For one molecule, Ki results are on record in PMC6479881 (Molecules, 2019).

This experiment addresses T1, Enterococcus faecalis thymidylate synthase (EfTS) (Enterococcus faecalis, UniProt Q834R3).
T1 construct: gene thyA
T1 sequence (Q834R3 1-315): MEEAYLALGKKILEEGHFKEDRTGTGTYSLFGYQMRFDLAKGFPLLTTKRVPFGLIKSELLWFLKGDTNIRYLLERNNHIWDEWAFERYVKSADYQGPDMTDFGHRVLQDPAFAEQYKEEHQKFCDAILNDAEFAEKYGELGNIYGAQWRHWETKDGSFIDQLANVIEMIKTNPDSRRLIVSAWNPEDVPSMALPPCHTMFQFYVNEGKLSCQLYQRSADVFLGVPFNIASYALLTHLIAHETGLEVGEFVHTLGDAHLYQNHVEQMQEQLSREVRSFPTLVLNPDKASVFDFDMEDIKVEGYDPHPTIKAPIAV
In words: crystal structure at […] Å; spectrophotometric enzyme inhibition assay (IC50 […], Ki calculated). Type of experiment: biochemical.

A word on the Ki: it is a dissociation constant, usually derived from enzyme kinetics or from competition with a known ligand. Regarding `O=c1[nH]c(=O)n([C@H]2C[C@H](O)[C@@H](COP(=O)(O)O)O2)cc1F` [FdUMP, 5-fluoro-2′-deoxyuridine-5′-monophosphate], the Ki was 74 nM.
